Data reported in the NIST ThermoML archive (doi:10.1021/je201283n).

Conditions: Liquid, isochoric method

CCn1cc[n+](C)c1.N#CN=C=[N-] [1-ethyl-3-methylimidazolium dicyanamide]
Conditions	mass density [kg/m3]
256.82 K, 20357 kPa	1142.71
256.92 K, 29975 kPa	1145.41
256.97 K, 10611 kPa	1139.49
257.12 K, 1250.8 kPa	1136.35
261.97 K, 9950.2 kPa	1135.94
262.11 K, 19886 kPa	1139.04
262.33 K, 39980 kPa	1144.93
262.46 K, 619.6 kPa	1132.49
267.67 K, 20023 kPa	1135.45
267.67 K, 39943 kPa	1141.75
267.7 K, 9753.2 kPa	1132.18
267.7 K, 9894 kPa	1132.04
267.7 K, 29879 kPa	1138.56
267.7 K, 29968 kPa	1138.56
267.7 K, 49706 kPa	1144.45
267.71 K, 20196 kPa	1135.44
267.71 K, 40066 kPa	1141.75
267.71 K, 49662 kPa	1144.45
268.06 K, 649.7 kPa	1128.69
273.25 K, 29805 kPa	1134.96
273.34 K, 49967 kPa	1141.26
273.4 K, 39951 kPa	1138.06
273.49 K, 19943 kPa	1131.55
273.51 K, 10041 kPa	1128.22
273.55 K, 60051 kPa	1143.95
274.21 K, 775.7 kPa	1124.56
278.57 K, 59071 kPa	1140.8
279.2 K, 40050 kPa	1134.45
279.22 K, 50024 kPa	1137.55
279.41 K, 30010 kPa	1131.04
279.59 K, 10349 kPa	1124.23
279.65 K, 9960.6 kPa	1124.1
279.66 K, 20569 kPa	1127.7
280.01 K, 1016.8 kPa	1120.72
280.04 K, 1077.6 kPa	1120.72
285.08 K, 50002 kPa	1133.94
285.13 K, 60064 kPa	1137.04
285.39 K, 9816.5 kPa	1120.27
285.42 K, 40116 kPa	1130.53
285.43 K, 19560 kPa	1123.61
285.44 K, 19459 kPa	1123.61
285.45 K, 9814.9 kPa	1120.27
285.5 K, 20153 kPa	1123.73
285.51 K, 30235 kPa	1127.2
286.62 K, 2009 kPa	1116.68
291.09 K, 59995 kPa	1133.42
291.45 K, 50059 kPa	1130.01
291.47 K, 9754 kPa	1116.28
291.47 K, 50178 kPa	1130.13
291.51 K, 40153 kPa	1126.69
291.61 K, 19904 kPa	1119.75
291.79 K, 29944 kPa	1123.08
297.62 K, 60101 kPa	1129.48
297.75 K, 50232 kPa	1126.16
297.91 K, 20011 kPa	1115.75
297.98 K, 30141 kPa	1119.22
298.08 K, 1020.2 kPa	1108.78
298.16 K, 103.4 kPa	1108.35
298.16 K, 40265 kPa	1122.54
303.94 K, 60074 kPa	1125.65
304.2 K, 39942 kPa	1118.71
304.23 K, 49724 kPa	1122.03
304.28 K, 29918 kPa	1115.22
304.34 K, 10634 kPa	1108.27
310.52 K, 20049 kPa	1107.77
310.57 K, 59616 kPa	1121.51
310.65 K, 49941 kPa	1118.17
310.81 K, 40003 kPa	1114.68
311.24 K, 1092 kPa	1100.23
317.17 K, 9765 kPa	1099.76
317.19 K, 29905 kPa	1107.23
317.23 K, 59899 kPa	1117.62
317.44 K, 50073 kPa	1114.13
324.19 K, 60082 kPa	1113.57
324.28 K, 20103 kPa	1099.19
325.02 K, 1127.1 kPa	1091.44
331.28 K, 30008 kPa	1098.63
331.29 K, 9862.4 kPa	1090.95
337.92 K, 60055 kPa	1105.54
338.39 K, 40023 kPa	1098.06
338.74 K, 20149 kPa	1090.36
339.67 K, 1074 kPa	1082.2
345.69 K, 50073 kPa	1097.48
346.21 K, 30275 kPa	1089.77
346.22 K, 9873.1 kPa	1081.75
